Measured values from the supplement of paper PMC11061612.

Experiments:
Experiment in all cases: combination Emax (second highest fraction inhibited in the dose matrix, 72 h); higher = more inhibition; extreme values may be limits of the assay
NCI-H2795 (Mesothelioma) = tested on: NCI-H2795 (Mesothelioma)
How it was run: (§1)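 Bliss excess equals the observed combination effect minus the expected value EA + EB − EA·EB, where EA and EB are the effects of each agent alone. Combination Emax is the second-highest inhibition within the matrix. Inhibition was scaled from CellTiter-Glo 2.0 luminescence, with 0 set by vehicle wells and 1 by blank wells, after 72 hours of two-drug dosing of cells plated in 1536-well plates.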

[1] = tested on: 8305C (Thyroid Gland Carcinoma)
How it was run: as §1

[2] = tested on: HO-1-u-1 (Oral Cavity Carcinoma)
How it was run: as §1

[3] = tested on: 639-V (Bladder Carcinoma)
How it was run: as §1

NCI-H2461 (Mesothelioma) = tested on: NCI-H2461 (Mesothelioma)
How it was run: as §1

[4] = tested on: Hs-633T (Other Solid Carcinomas)
How it was run: as §1

Mewo (Melanoma) = tested on: Mewo (Melanoma)
How it was run: as §1

[5] = tested on: SU-DHL-6 (B-Cell Non-Hodgkin's Lymphoma)
How it was run: as §1

[6] = tested on: CTB-1 (B-Cell Non-Hodgkin's Lymphoma)
How it was run: as §1

[7] = tested on: HDLM-2 (Hodgkin's Lymphoma)
How it was run: as §1

[8] = tested on: MDA-MB-468 (Breast Carcinoma)
How it was run: as §1

[9] = tested on: RT-112 (Bladder Carcinoma)
How it was run: as §1

[10] = tested on: KYSE-410 (Esophageal Squamous Cell Carcinoma)
How it was run: as §1

[11] = tested on: CAL-51 (Breast Carcinoma)
How it was run: as §1

[12] = tested on: OVCAR-8 (Ovarian Carcinoma)
How it was run: as §1

[13] = tested on: SW626 (Colorectal Carcinoma)
How it was run: as §1

[14] = tested on: OC-314 (Ovarian Carcinoma)
How it was run: as §1

[15] = tested on: NCI-H747 (Colorectal Carcinoma)
How it was run: as §1

[16] = tested on: K5 (Thyroid Gland Carcinoma)
How it was run: as §1

[17] = tested on: UMC-11 (Other Solid Carcinomas)
How it was run: as §1

Row | SMILES | combination Emax (NCI-H2795 (Mesothelioma)) | combination Emax [1] | combination Emax [2] | combination Emax [3] | combination Emax (NCI-H2461 (Mesothelioma)) | combination Emax [4] | combination Emax (Mewo (Melanoma)) | combination Emax [5] | combination Emax [6] | combination Emax [7] | combination Emax [8] | combination Emax [9] | combination Emax [10] | combination Emax [11] | combination Emax [12] | combination Emax [13] | combination Emax [14] | combination Emax [15] | combination Emax [16] | combination Emax [17]
1 | Cc1cc2ncnn2cc1Nc1ncc2c(n1)n(C1CCOCC1)c(=O)n2C [AZD7648] + CCN(CCO)CCCOc1ccc2c(Nc3cc(CC(=O)Nc4cccc(F)c4)[nH]n3)ncnc2c1 [AZD2811] (first compound max 10 µM, 7x7, partner max 1 µM) | 0.45 | 0.451 | 0.449 | 0.278 | 0.468 | 0.431 | 0.259 | 0.51 | 0.697 | 0.345 | 0.492 | 0.49 | 0.187 | 0.446 | 0.311 | 0.25 | 0.477 | 0.306 | 0.571 | 0.701
2 | CN(C)CCCOc1ccc(-c2ccc3ncc4c(c3c2)n(C2CCOCC2)c(=O)n4C)cn1 [AZD0156] + C=CCn1c(=O)c2cnc(Nc3ccc(N4CCN(C)CC4)cc3)nc2n1-c1cccc(C(C)(C)O)n1 [AZD1775] (first compound max 1 µM, partner max 1 µM) | 0.512 | 0.924 | 0.77 | 0.204 | 0.674 | 0.769 | 0.47 | 0.699 | 0.898 | 0.721 | 0.42 | 0.514 | 0.32 | 0.728 | 0.8 | 0.508 | 0.515 | 0.414 | 0.424 | 0.377
3 | Cc1c2c(nn1C)CSCc1cc(n(C)n1)CSc1cc(c3ccccc3c1)OCCCc1c(C(=O)O)n(C)c3c-2c(Cl)ccc13 [AZD5991] + Cn1cnc2c(F)c(Nc3ccc(Br)cc3Cl)c(C(=O)NOCCO)cc21 [Selumetinib] (first compound max 1 µM, 7x7, partner max 3 µM) | 0.971 | 0.512 | 0.292 | 0.283 | 0.359 | 0.64 | 0.475 | 1 | 0.203 | 0.995 | 0.595 | 1 | 0.331 | 0.406 | 0.255 | 0.528 | 0.245 | 0.728 | 0.739 | 0.348
4 | Cc1cc2ncnn2cc1Nc1ncc2c(n1)n(C1CCOCC1)c(=O)n2C [AZD7648] + C=CCn1c(=O)c2cnc(Nc3ccc(N4CCN(C)CC4)cc3)nc2n1-c1cccc(C(C)(C)O)n1 [AZD1775] (first compound max 10 µM, partner max 1 µM) | 0.602 | 0.7 | 0.617 | 0.425 | 0.659 | 0.748 | 0.427 | 0.753 | 0.905 | 0.585 | 0.526 | 0.742 | 0.361 | 0.864 | 0.81 | 0.513 | 0.567 | 0.55 | 0.665 | 0.424
5 | Cc1c2c(nn1C)CSCc1cc(n(C)n1)CSc1cc(c3ccccc3c1)OCCCc1c(C(=O)O)n(C)c3c-2c(Cl)ccc13 [AZD5991] + C[C@@H]1COCCN1C2=NC(=NC(=C2)C3(CC3)[S@](=N)(=O)C)C4=C5C=CNC5=NC=C4 [AZD6738] (first compound max 1 µM, 7x7, partner max 10 µM) | 0.939 | 0.593 | 0.844 | 0.452 | 0.765 | 0.938 | 0.59 | 1 | 0.785 | 0.992 | 0.768 | 0.958 | 0.403 | 0.899 | 0.783 | 0.632 | 0.832 | 0.322 | 0.574 | 0.828
6 | CC1(C)CCC(CN2CCN(c3ccc(C(=O)NS(=O)(=O)c4ccc(NCC5CCOCC5)c([N+](=O)[O-])c4)c(Oc4cnc5[nH]ccc5c4)c3)CC2)=C(c2ccc(Cl)cc2)C1 [Venetoclax] + Cn1cnc2c(F)c(Nc3ccc(Br)cc3Cl)c(C(=O)NOCCO)cc21 [Selumetinib] (first compound max 1 µM, 7x7, partner max 3 µM) | 0.562 | 0.397 | 0.286 | 0.27 | 0.444 | 0.228 | 0.528 | 0.88 | 0.105 | 0.296 | 0.315 | 0.304 | 0.222 | 0.214 | 0.153 | 0.507 | 0.134 | 0.717 | 0.742 | 0.17
7 | COc1cccc(OCCCN)c1-c1cc(Nc2cnc(C#N)cn2)n[nH]1 [Prexasertib] + C=CCn1c(=O)c2cnc(Nc3ccc(N4CCN(C)CC4)cc3)nc2n1-c1cccc(C(C)(C)O)n1 [AZD1775] (first compound max 1 µM, partner max 1 µM) | 0.804 | 0.718 | 0.986 | 0.805 | 0.745 | 0.973 | 0.599 | 0.955 | 0.967 | 0.612 | 0.645 | 1 | 0.584 | 0.95 | 0.998 | 0.695 | 0.98 | 0.746 | 0.742 | 0.936
8 | CC1(C)CCC(CN2CCN(c3ccc(C(=O)NS(=O)(=O)c4ccc(NCC5CCOCC5)c([N+](=O)[O-])c4)c(Oc4cnc5[nH]ccc5c4)c3)CC2)=C(c2ccc(Cl)cc2)C1 [Venetoclax] + C[C@@H]1COCCN1C2=NC(=NC(=C2)C3(CC3)[S@](=N)(=O)C)C4=C5C=CNC5=NC=C4 [AZD6738] (first compound max 1 µM, 7x7, partner max 10 µM) | 0.622 | 0.681 | 0.853 | 0.479 | 0.725 | 0.763 | 0.556 | 0.92 | 0.836 | 0.683 | 0.624 | 0.842 | 0.372 | 0.909 | 0.712 | 0.638 | 0.897 | 0.387 | 0.616 | 0.619
9 | C[C@@H]1COCCN1c1cc(C2([S@](C)(=N)=O)CC2)nc(-c2ccnc3[nH]ccc23)n1 [AZD6738] + O=C(c1cc(Cc2n[nH]c(=O)c3ccccc23)ccc1F)N1CCN(C(=O)C2CC2)CC1 [Olaparib] (first compound max 10 µM, 7x7, partner max 10 µM) | 0.745 | 0.99 | 0.793 | 0.787 | 0.703 | 0.821 | 0.548 | 0.621 | 0.777 | 0.437 | – | 0.614 | 0.239 | 0.926 | 0.935 | 0.455 | 0.872 | 0.356 | 0.627 | 0.561
10 | NC1(C(=O)N[C@@H](CCO)c2ccc(Cl)cc2)CCN(c2ncnc3[nH]ccc23)CC1 [Capivasertib] + Cn1cnc2c(F)c(Nc3ccc(Br)cc3Cl)c(C(=O)NOCCO)cc21 [Selumetinib] (first compound max 10 µM, 7x7, partner max 10 µM) | 0.871 | 0.527 | 0.878 | 0.366 | 0.569 | 0.633 | 0.589 | 1 | – | 0.205 | 0.741 | 0.475 | 0.532 | 0.596 | 0.303 | 0.65 | 0.604 | 0.909 | 0.864 | 0.279
11 | NC1(C(=O)N[C@@H](CCO)c2ccc(Cl)cc2)CCN(c2ncnc3[nH]ccc23)CC1 [Capivasertib] + C[C@@H]1COCCN1C2=NC(=NC(=C2)C3(CC3)[S@](=N)(=O)C)C4=C5C=CNC5=NC=C4 [AZD6738] (first compound max 10 µM, 7x7, partner max 10 µM) | 0.737 | 0.683 | 0.887 | 0.496 | 0.797 | 0.894 | 0.557 | 1 | – | 0.518 | 0.726 | 0.62 | 0.397 | 0.936 | 0.776 | 0.68 | 0.793 | 0.626 | 0.687 | 0.67
12 | CN(C)CCCOc1ccc(-c2ccc3ncc4c(c3c2)n(C2CCOCC2)c(=O)n4C)cn1 [AZD0156] + O=C(c1cc(Cc2n[nH]c(=O)c3ccccc23)ccc1F)N1CCN(C(=O)C2CC2)CC1 [Olaparib] (first compound max 3 µM, partner max 3 µM) | 0.384 | 0.441 | 0.408 | 0.443 | 0.292 | 0.57 | 0.322 | 0.729 | – | 0.207 | 0.392 | 0.228 | 0.172 | 0.296 | 0.316 | 0.164 | 0.497 | 0.339 | 0.314 | 0.246
13 | CCc1c2c(nc3ccc(O)cc13)-c1cc3c(c(=O)n1C2)COC(=O)[C@]3(O)CC [SN-38] + O=C(c1cc(Cc2n[nH]c(=O)c3ccccc23)ccc1F)N1CCN(C(=O)C2CC2)CC1 [Olaparib] (first compound max 0.3 µM, 7x7, partner max 10 µM) | 0.771 | 0.627 | 0.695 | 1 | 0.639 | 0.842 | 0.338 | 1 | 0.837 | 0.473 | 0.773 | 0.762 | 0.423 | 0.801 | – | 0.559 | 1 | 0.542 | 0.505 | 0.24
